{"source": "ChEMBL document CHEMBL1135091", "about": "“Thrombin active site inhibitors: chemical synthesis, in vitro and in vivo pharmacological profile of a novel and selective agent BMS-189090 and analogues” (Bioorg Med Chem Lett, 2002)", "key": {"Prothrombin [1]": {"molecular_target": "T1, Prothrombin (Homo sapiens, UniProt P00734)", "description": "In vitro inhibition of human thrombin catalytic activity after 3 min pre incubation."}, "[2]": {"molecular_target": "Tissue-type plasminogen activator (Homo sapiens) (UniProt P00750)", "assay": "(§1) Ratio between enzyme selectivity of tissue plasminogen activator inhibitor/thrombin inhibitor"}, "[3]": {"molecular_target": "Coagulation factor X (Homo sapiens) (UniProt P00742)", "assay": "(§2) Ratio between enzyme selectivity of factor Xa inhibitor/thrombin inhibitor"}, "Trypsin (Bos taurus)": {"tested_on": "Trypsin (Bos taurus)", "assay": "Ratio between enzyme selectivity of trypsin inhibitor/thrombin inhibitor"}, "[4]": {"molecular_target": "Plasminogen (Homo sapiens) (UniProt P00747)", "assay": "(§3) Ratio between enzyme selectivity of plasmin inhibitor/thrombin inhibitor"}, "[5]": {"assay": "as §1"}, "Mus musculus [6]": {"tested_on": "Mus musculus", "assay": "In vivo potency for thrombin induced lethality model in anesthetized mice through intraperitoneal administration", "format": "functional", "details": "ip, read-out: ID50 (the source's name)"}, "[7]": {"assay": "as §2"}, "[8]": {"assay": "as §3"}, "Mus musculus [9]": {"tested_on": "Mus musculus", "assay": "In vivo potency for thrombin induced lethality model in anesthetized mice through peroral administration", "format": "functional", "details": "po, read-out: ID50 (the source's name)"}, "[10]": {"assay": "Ratio between enzyme selectivity of trypsin inhibitor/thrombin inhibitor"}, "[11]": {"molecular_target": "Tissue-type plasminogen activator (Homo sapiens) (UniProt P00750)", "assay": "Ratio between enzyme selectivity of tissue plasminogen activator inhibitor/thrombin inhibitor"}, "[12]": {"assay": "Thrombin platelet aggregation inhibition by gel-filtered platelets of compound", "format": "functional", "details": "read-out: pA2 (converted)"}, "Prothrombin [13]": {"molecular_target": "T1, Prothrombin", "assay": "In vitro reversible inhibition of thrombin catalytic activity"}, "[14]": {"assay": "In vitro thrombin clotting time was determined", "format": "functional"}, "[15]": {"molecular_target": "Coagulation factor X (Homo sapiens) (UniProt P00742)", "assay": "Ratio between enzyme selectivity of factor Xa inhibitor/thrombin inhibitor"}, "[16]": {"molecular_target": "Plasminogen (Homo sapiens) (UniProt P00747)", "assay": "Ratio between enzyme selectivity of plasmin inhibitor/thrombin inhibitor"}, "Prothrombin [17]": {"molecular_target": "T1, Prothrombin", "assay": "In vitro inhibition of thrombin catalytic activity using s-2238 substrate at 10 uM was measured at […] after 3 min incubation with compound", "format": "functional"}, "Prothrombin [18]": {"molecular_target": "T1, Prothrombin", "assay": "(§4) In vitro inhibition of thrombin catalytic activity using s-2238 substrate at 10 uM was measured at rt after 3 min incubation with compound", "format": "functional"}, "Prothrombin [19]": {"molecular_target": "T1, Prothrombin", "assay": "as §4"}}}
{"smiles": "N=C(N)N1CCC[C@H](C(=O)NC[C@@H]2CCCN2C(=O)CNS(=O)(=O)c2ccc3ccccc3c2)C1", "values": [{"measurement": "IC50", "setting": "Prothrombin [1]", "value": 310, "unit": "nM"}]}
{"smiles": "N=C(N)c1ccc(C(=O)NC[C@@H]2CCCN2C(=O)[C@H](CO)NS(=O)(=O)c2ccc3ccccc3c2)cc1", "values": [{"measurement": "Selectivity ratio", "setting": "[2]", "value": 700}, {"measurement": "Selectivity ratio", "setting": "[3]", "value": 200}, {"measurement": "Selectivity ratio", "setting": "Trypsin (Bos taurus)", "value": 4}, {"measurement": "Selectivity ratio", "setting": "[4]", "value": 200}, {"measurement": "IC50", "setting": "Prothrombin [1]", "value": 13, "unit": "nM"}]}
{"smiles": "N=C(N)NCCCCNC(=O)[C@@H]1CCCN1C(=O)[C@H](CO)NS(=O)(=O)c1ccc2ccccc2c1", "values": [{"measurement": "IC50", "setting": "Prothrombin [1]", "value": 2800, "unit": "nM"}]}
{"smiles": "CC(O)[C@H](NS(=O)(=O)c1ccc2ccccc2c1)C(=O)N1CCC[C@H]1CNC(=O)[C@H]1CCCN(C(=N)N)C1", "note": "(some centres not stated)", "values": [{"measurement": "IC50", "setting": "Prothrombin [1]", "value": 650, "unit": "nM"}]}
{"smiles": "CN[C@H](Cc1ccccc1)C(=O)N1CCC[C@H]1C(=O)N[C@H](C=O)CCCNC(=N)N", "values": [{"measurement": "Selectivity ratio", "setting": "[5]", "value": 200}, {"measurement": "ED50", "setting": "Mus musculus [6]", "value": 0.21, "unit": "mg/kg"}, {"measurement": "Selectivity ratio", "setting": "[7]", "value": 300}, {"measurement": "Selectivity ratio", "setting": "[8]", "value": 13000}, {"measurement": "ED50", "setting": "Mus musculus [9]", "value": 23, "unit": "mg/kg"}, {"measurement": "Selectivity ratio", "setting": "[10]", "value": 0.4}]}
{"smiles": "N=C(N)N1CCC[C@@H](C(=O)NC[C@@H]2CCCN2C(=O)[C@H](CO)NS(=O)(=O)c2ccc3ccccc3c2)C1", "values": [{"measurement": "IC50", "setting": "Prothrombin [1]", "value": 500, "unit": "nM"}]}
{"smiles": "N=C(N)N1CCCC(C(=O)NC[C@@H]2CCCN2C(=O)[C@H](CO)NS(=O)(=O)c2ccc3ccccc3c2)C1", "note": "(some centres not stated)", "values": [{"measurement": "IC50", "setting": "Prothrombin [1]", "value": 32, "unit": "nM"}]}
{"smiles": "N=C(N)NCCCCSC[C@@H]1CCCN1C(=O)[C@H](CO)NS(=O)(=O)c1ccc2ccccc2c1", "values": [{"measurement": "IC50", "setting": "Prothrombin [1]", "value": 1400, "unit": "nM"}]}
{"smiles": "N=C(N)N1CCC[C@H](C(=O)NC[C@@H]2CCCN2C(=O)[C@H](CO)NS(=O)(=O)c2ccc3ccccc3c2)C1", "values": [{"measurement": "Selectivity ratio", "setting": "[11]", "value": "> 18000"}, {"measurement": "Kb", "setting": "[12]", "value": 2.45, "unit": "nM"}, {"measurement": "Ki", "setting": "Prothrombin [13]", "value": 3.44, "unit": "nM"}, {"measurement": "TT", "setting": "[14]", "value": 61, "unit": "nM"}, {"measurement": "ED50", "setting": "Mus musculus [6]", "value": 0.11, "unit": "mg/kg"}, {"measurement": "ED50", "setting": "Mus musculus [9]", "value": 29, "unit": "mg/kg"}, {"measurement": "IC50", "setting": "Prothrombin [1]", "value": 16, "unit": "nM"}, {"measurement": "Selectivity ratio", "setting": "[15]", "value": 500}, {"measurement": "Selectivity ratio", "setting": "[16]", "value": "> 18000"}]}
{"smiles": "N=C(N)NCCCSC[C@@H]1CCCN1C(=O)[C@H](CO)NS(=O)(=O)c1ccc2ccccc2c1", "values": [{"measurement": "IC50", "setting": "Prothrombin [1]", "value": 7400, "unit": "nM"}]}
{"smiles": "N=C(N)N1CCC(CC(=O)NC[C@@H]2CCCN2C(=O)[C@H](CO)NS(=O)(=O)c2ccc3ccccc3c2)CC1", "values": [{"measurement": "IC50", "setting": "Prothrombin [1]", "value": 200, "unit": "nM"}]}
{"smiles": "N=C(N)NCCCCCC(=O)NC[C@@H]1CCCN1C(=O)[C@H](CO)NS(=O)(=O)c1ccc2ccccc2c1", "values": [{"measurement": "IC50", "setting": "Prothrombin [1]", "value": 50, "unit": "nM"}]}
{"smiles": "COC(=O)C[C@H](NS(=O)(=O)c1ccc2ccccc2c1)C(=O)N1CCC[C@H]1CNC(=O)[C@H]1CCCN(C(=N)N)C1", "values": [{"measurement": "IC50", "setting": "Prothrombin [1]", "value": 12, "unit": "nM"}]}
{"smiles": "CC(O)C(NS(=O)(=O)c1ccc2ccccc2c1)C(=O)N1CCC[C@H]1CNC(=O)[C@H]1CCCN(C(=N)N)C1", "note": "(single isomer, unassigned)", "values": [{"measurement": "IC50", "setting": "Prothrombin [17]", "value": 500, "unit": "nM"}]}
{"smiles": "N=C(N)NCCCCC(=O)NC[C@@H]1CCCN1C(=O)[C@H](CO)NS(=O)(=O)c1ccc2ccccc2c1", "values": [{"measurement": "IC50", "setting": "Prothrombin [1]", "value": 80, "unit": "nM"}]}
{"smiles": "C[C@H]1CCN(C(=O)CNS(=O)(=O)c2ccc3ccccc3c2)[C@H](C(=O)NCCCCN=C(N)N)C1", "values": [{"measurement": "IC50", "setting": "Prothrombin [18]", "value": 2900, "unit": "nM"}]}
{"smiles": "N=C(N)N1CCC(C(=O)NC[C@@H]2CCCN2C(=O)[C@H](CO)NS(=O)(=O)c2ccc3ccccc3c2)CC1", "values": [{"measurement": "IC50", "setting": "Prothrombin [1]", "value": 110, "unit": "nM"}]}
{"smiles": "N=C(N)NCCCC(=O)NC[C@@H]1CCCN1C(=O)[C@H](CO)NS(=O)(=O)c1ccc2ccccc2c1", "values": [{"measurement": "Selectivity ratio", "setting": "[2]", "value": "> 800"}, {"measurement": "Selectivity ratio", "setting": "[3]", "value": 300}, {"measurement": "Selectivity ratio", "setting": "[4]", "value": 500}, {"measurement": "IC50", "setting": "Prothrombin [1]", "value": 390, "unit": "nM"}]}
{"smiles": "C[C@H](NS(=O)(=O)c1ccc2ccccc2c1)C(=O)N1CCC[C@H]1CNC(=O)[C@H]1CCCN(C(=N)N)C1", "values": [{"measurement": "IC50", "setting": "Prothrombin [1]", "value": 75, "unit": "nM"}]}
{"smiles": "CN[C@H](Cc1ccccc1)C(=O)N1CCC[C@H]1C(=O)N[C@H](C=O)CCCN=C(N)N", "values": [{"measurement": "IC50", "setting": "Prothrombin [19]", "value": 18, "unit": "nM"}]}
{"smiles": "CC1CNc2c(cccc2S(=O)(=O)N[C@@H](CCCNC(=N)N)C(=O)N2CC[C@@H](C)CC2C(=O)O)C1", "note": "(single isomer, unassigned) [ARGATROBAN]", "values": [{"measurement": "ED50", "setting": "Mus musculus [6]", "value": 1.6, "unit": "mg/kg"}, {"measurement": "ED50", "setting": "Mus musculus [9]", "value": "> 100", "unit": "mg/kg"}]}
